Measured values: patent US20060079453A1, “Hla binding peptides and their uses” (priority 2002, published 2006)
Like-named read-outs stand apart in the source and are kept apart here. No end group written: not given here.

Columns and labels:
Test in all cases: biochemical
Type in all cases: binding
[1] = target: HLA-A*0201 (Homo sapiens, UniProt P04439, D140Y/D185E/D98H/E176V/E277Q/G131W/G231S/I119V/I121R/I166T/I218V/L300P/L318F/N151K/N90K/P208A/P217A/Q86G/Q94H/R138H/R169H/T345S)
[2] = target: HLA-A*0202 (Homo sapiens, UniProt P04439, D140Y/D185E/D98H/E176V/E277Q/G131W/G231S/I119L/I121R/I166T/I218V/L180W/L300P/L318F/N151K/N90K/P208A/P217A/Q67R/Q86G/Q94H/R138H/R169H/T345S)
[3] = target: HLA-A*0206 (Homo sapiens, UniProt P04439, D140Y/D185E/D98H/E176V/E277Q/F33Y/G131W/G231S/I119V/I121R/I166T/I218V/L300P/L318F/N151K/N90K/P208A/P217A/Q86G/Q94H/R138H/R169H/T345S)
[4] = target: HLA-A*6802 (Homo sapiens, UniProt P04439, A269V/D140Y/D185E/E176V/E277Q/E87N/F33Y/G231S/I121R/I166T/I218V/L180W/L300P/L318F/N151K/P208A/P217A/Q86R/R138H/R169H/S129P/T345S/V36M)
[5] = target: HLA-A*0203 (Homo sapiens, UniProt P04439, A173T/D140Y/D185E/D98H/E277Q/G131W/G231S/I119V/I121R/I166T/I218V/L180W/L300P/L318F/N151K/N90K/P208A/P217A/Q86G/Q94H/R138H/R169H/T345S)
[6] = A*0201 binding affinity (expressed as an IC50)
[7] = A*0202 binding affinity (expressed as an IC50)
[8] = A*0206 binding affinity (expressed as an IC50)
[9] = A*6802 binding affinity (expressed as an IC50)
[10] = A*0203 binding affinity (expressed as an IC50)

Row | Sequence | IC50 [1, 6] | IC50 [2, 7] | IC50 [3, 8] | IC50 [4, 9] | IC50 [5, 10] | IC50 [5] | IC50 [3] | further results
1 | KLTPLCVTM | 0.34 µM | 0.0036 µM | 0.197 µM | 6.29 µM |  |  |  | 
2 | LLNESNIFL | 0.043 µM | 0.0025 µM |  | 4.48 µM | 0.024 µM |  |  | 
3 | LLYSKKRQEI |  |  |  |  |  | 0.152 µM | > 9.44 µM | IC50 [1]: 80.7 µM
4 | LLYSKKRQEIL |  |  |  |  |  | 1.57 µM | > 8.56 µM | IC50 [1]: > 38.2 µM; IC50 [4]: > 14.3 µM
5 | LQLPPLERV |  |  |  |  |  | 13.5 µM | 0.203 µM | IC50 [1]: 7.95 µM; IC50 [2]: 7.71 µM
6 | MTANPPVPV | 0.02 µM | 0.005 µM |  | 0.004 µM | 0.00062 µM |  |  | 
7 | MTNNPPVPV | 0.086 µM | 0.018 µM |  |  | 0.00042 µM |  |  | 
8 | MTSDPPIPV |  |  |  |  |  | 0.00045 µM | 0.587 µM | IC50 [1]: 0.107 µM; IC50 [2]: 0.013 µM
9 | NQMIFVSSI | 0.25 µM | 0.021 µM | 0.014 µM |  | 0.0036 µM |  |  | 
10 | PVLPIFFCV | 0.0087 µM | 3.14 µM | 0.022 µM |  |  |  |  | 
11 | QAHCNISRA | 0.338 µM |  |  |  |  |  |  | 
12 | QLVFGGPGPGV | 2.15 µM | 0.096 µM | 3.21 µM | 1.32 µM |  |  |  | 
13 | QLVFGPGPGEV | 2.94 µM |  | 4.07 µM | 0.447 µM | 0.05 µM |  |  | 
14 | QMTFLCVQM | 3.15 µM | 0.04 µM | 0.232 µM |  |  |  |  | 
15 | RLDILDLWV |  |  |  |  |  | 1.64 µM | 2.64 µM | IC50 [1]: 0.043 µM; IC50 [4]: > 17.8 µM
16 | TLHDLCQAL [TLHDLCQAL] | 1.4 µM | 0.0027 µM |  | 70.4 µM | 0.04 µM |  |  | 
17 | TLHDLCQAV |  |  |  |  |  | 0.015 µM | 10.6 µM | IC50 [2]: 0.017 µM; IC50 [4]: 2.81 µM
18 | TLQGPGPGL |  | 0.062 µM | 9.12 µM | 3.81 µM | 0.951 µM |  |  | 
19 | VLAEAMSHA |  |  |  |  |  | 0.0012 µM | 0.121 µM | IC50 [2]: 0.0017 µM; IC50 [4]: 0.431 µM
20 | VLAEAMSQI |  |  |  |  |  | 0.00087 µM | 0.07 µM | IC50 [1]: 0.071 µM; IC50 [2]: 0.00015 µM
21 | VLAKGPGPGTL | 11.3 µM | 0.026 µM |  | > 170 µM |  |  |  | 
22 | VLGPGPGFVTL |  | 0.013 µM | 4.77 µM | 42.1 µM | 0.063 µM |  |  | 
23 | VLMEWLKTRPI |  |  |  |  |  |  |  | IC50 [1]: 0.464 µM
24 | VTAKELKFV | 7.14 µM | 2.69 µM | 0.137 µM |  | 0.04 µM |  |  | 
25 | WLGPGPGFV |  | 0.0041 µM | 0.53 µM | 0.293 µM | 0.0022 µM |  |  | 
26 | WLNYTPGPGI |  |  |  |  |  | 0.046 µM | > 31.6 µM | IC50 [2]: 0.0046 µM; IC50 [4]: 1.2 µM
27 | YLKEPVHGV |  |  |  |  |  | 0.0019 µM |  | IC50 [1]: 0.054 µM; IC50 [2]: 0.00065 µM; IC50 [4]: 0.063 µM
28 | YLSGAIDLNL |  |  |  |  |  |  |  | IC50 ([1]; read-out: A*0201 binding affinity (expressed as an IC50)): 0.036 µM; IC50 ([4]; read-out: A*6802 binding affinity (expressed as an IC50)): 51.2 µM
29 | YMIKKLLKI |  | 0.0046 µM | 0.093 µM | 63.1 µM | 0.0047 µM |  |  | 
30 | YQDPQNYEL | 0.079 µM | 0.018 µM | 0.052 µM | 167 µM |  |  |  | 
